# Test results from patent US11542316B2, “S-Arrestin peptides and therapeutic uses thereof” (APITOPE INTERNATIONAL NV, priority 2017, dated 2023).
# Ends that are not written are not given here.
# Key:
# [1] = molecular target: T1, MHC II molecules present on dendritic cells (DC) (Homo sapiens, UniProt P01903+P01911); assay: In vivo presentation experiment, DR2tg mice; details: 100 μg peptide s.c., CD11c+ cells harvested after 2 hours, co-culture 48 hours
# T1 construct: from tissue; host or cells: CD11c+ dendritic cells from spleens of DR2tg mice (DRA*0101 and DRB1*1501 cDNAs under a mouse MHCII promoter, no mouse MHC class II)
# Source text: FIG. 14: In vivo presentation protocol. Mice are immunized with peptide/CFA and a T cell line is established. For this, ten days after immunization the LN and spleens are harvested and cultured with different concentrations of peptide; 2×10^6 cells/ml APC+1×10^6 cells/ml CD4^+ cells per well. At day 7 the cells are re-stimulated with fresh APC and the same concentrations of peptide. After 14 to 21 days, CD4^+ cells are isolated from these cultures by magnetic bead isolation. These CD4^+ cells are co-cultured with CD11c^+ (dendritic) cells isolated by magnetic bead isolation from spleens of mice s.c. injected with peptide 2 hours before. Control mice receive a s.c. injection of PBS. After 48 hours, supernatant is collected and cytokine response (IFN-γ) is measured. […]
# FIG. 17: In vivo presentation of HIP-9FL nested peptides in DR2 mice. […] After 48 hours, supernatant was collected and IFN-γ production was measured by ELISA. […]
# DR3tg or DR2tg mice were injected with 100 μg of peptide in 100 μl PBS subcutaneously (s.c.) in the flank. […] After 48 hours, supernatant of these co-cultures was collected and CD4^+ T cell activation was analysed by IFN-γ ELISA (R&D Systems, Abingdon, UK). In a parallel experiment, CD4^+ T cell responses towards peptide added in vitro were assessed to make sure the T cells recognize the peptides presented by the CD11c^+ cells.
# [2] = Solubility of peptides; assay type: physicochemical
# Protocol: The solubility of potential apitopes from S—Ag are determined by visual observations and turbidity measurement by UV spectrophotometry at 280 nm. The solubility of the peptides can be modified by adding amino acids ‘GKK’ or ‘KKK’ (or similar) on both the C- and N-terminus of the sequence. Modifications that may be suitable are described in WO2014/072958 (which is hereby incorporated by reference).
# For some of these peptides, the parental peptides were insoluble, and solubility is a critical parameter for them to work as a tolerogenic peptide. Several end-terminal modifications can be used and as example used here they were improved by addition of 3 lysines before and after the original peptide sequence (labelled as ‘-KKK’ versions).
# [3] = tested on: LN and spleen cells; assay: Immunogenicity of HIP-115 in DR3 mice (IFN-γ ELISA on LN and spleen cultures); assay type: in vivo; details: mice immunized with 50 μg HIP-115/CFA; LN and spleens cultured with 10 and 25 μg/ml HIP-115, 72 h
# Protocol: FIG. 1: Immunogenicity of HIP-115 in DR3 mice. Mice were immunized with 50 μg HIP-115/CFA or PBS/CFA in the tail base. After 10 days, LN and spleens were harvested and cultured with 10 μg/ml and 25 μg/ml of HIP-115. Supernatants were collected after 72 h. Cell activation was measured by IFN-γ ELISA. (A) Immunogenicity in LN. (B) Immunogenicity in spleens. CFA, Complete Freund's Adjuvant; LN, lymph nodes.
# Animal experiments were done to verify the predictions. Mice that were immunized with SAg (or fragments of it) were tested for their capacity to elicit an immune response when probed with the whole protein or parts of it. […] This response can be observed in secondary lymphoid organs, namely spleen (FIG. 1A) and lymph nodes (LN; FIG. 1B).
# [4] = tested on: SAg-specific hybridoma cells / T cell line with VAVY APC; assay: Antigen Processing Independent Presentation System (APIPS) assay, fresh or fixed VAVY APC; assay type: cell-based, DR3 mice; details: DR3 hybridoma clone (IL-2, 48 h) or T cell line (IFN-γ, 24 h)
# Protocol: (§1) FIG. 2: identification of apitopes within HIP-115. (A) DR3 mice were immunized with SAg and hybridomas were generated. 5×10^4 SAg-specific hybridoma cells were cultured with 5×10^4 fresh or fixed commercial APC (VAVY) cells. T cell proliferation was measured by IL-2 ELISA on supernatants collected after 48 h. The graph represents the mean of duplicate measurements±SEM. (B) DR3 mice were immunized with HIP-115 and a T cell line was established. Ten days after immunization the LN and spleens were harvested and cultured with different concentrations of peptide (0.1-1-2.5 and 5 μg/ml); 2×10^6 cells/ml APC+1×10^6 cells/ml CD4 T cells per well. At day 7 the cells were re-stimulated with the same concentrations of peptide. On day 14 an APIPS test was done using commercial APC (VAVY). After 24 h, antigen-induced T cell activation was measured by IFN-γ ELISA and shown as IFN-γ concentration (pg/ml). The graph represents the mean of duplicate measurements±SEM. LN, lymph nodes; APC, Antigen presenting cell; APIPS, Antigen Processing Independent Presentation System.
# as §1, with “3:” for “2:”, “HIP-241125.” for “HIP-115.”, “HIP-241125+HIP-24DG” for “HIP-115”
# (§2) FIG. 5: Identification of apitopes within HIP-17GN. DR3 mice were immunized with HIP-17GN and a T cell line was established. Ten days after immunization the LN and spleens were harvested and cultured with different concentrations of peptide (0.1-1-2.5 and 5 μg/ml); 2×10^6 cells/ml APC+1×10^6 cells/ml CD4 T cells per well. At day 7 the cells were re-stimulated with the same concentrations of peptide. On day 14 an APIPS test was done using commercial APC (VAVY). After 24 h, antigen-induced T cell activation was measured by IFN-γ ELISA and shown as OD values. The graph represents the mean of triplicate measurements±SEM. LN, lymph nodes; APC, Antigen presenting cell; APIPS, Antigen Processing Independent Presentation System.
# as §2, with “6:” for “5:”, “HIP-12AK.” for “HIP-17GN.”, “HIP-12AK” for “HIP-17GN”, “IFN-γ concentration (pg/ml).” for “OD values.”, “duplicate” for “triplicate”
# Antigen-specific clones or TCL were tested for their reactivity to the peptides, presented by fixed or not fixed (fresh) cells (VAVY or MGAR) (=APCs). 5×10^4 cells from the individual clones were cultured with 10 μg/ml peptide and 5×10^4 fixed or fresh APCs. […]
# T1 sequence (P01903 26-254): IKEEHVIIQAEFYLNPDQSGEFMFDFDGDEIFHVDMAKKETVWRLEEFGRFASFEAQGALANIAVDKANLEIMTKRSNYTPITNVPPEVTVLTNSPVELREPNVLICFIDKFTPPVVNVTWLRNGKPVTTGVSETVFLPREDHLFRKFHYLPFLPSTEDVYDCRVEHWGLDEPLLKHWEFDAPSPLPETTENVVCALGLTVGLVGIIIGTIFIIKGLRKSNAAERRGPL
# T1 sequence (P01911 30-266): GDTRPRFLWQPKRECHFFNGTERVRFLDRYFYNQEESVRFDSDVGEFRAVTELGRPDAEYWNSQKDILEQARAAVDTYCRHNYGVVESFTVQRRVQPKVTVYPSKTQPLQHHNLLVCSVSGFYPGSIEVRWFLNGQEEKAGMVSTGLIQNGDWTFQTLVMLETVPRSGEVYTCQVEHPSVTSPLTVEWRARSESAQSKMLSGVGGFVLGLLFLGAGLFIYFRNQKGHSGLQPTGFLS
picked up and presented by MHC II on dendritic cells to peptide-specific T cells (IFN-γ production) [1],solubility [2],Substance,immune response against HIP-115 (IFN-γ ELISA) [3],behaves as apitope (response to peptide presented by fresh or fixed APC) [4]
not able to cause this activation,insoluble,"AFVEQVANVVL-NH2 [HIP-9K1, AFVEQVANVVL]",–,–
–,–,MAASGKTSKSEPNHVIFKKISRDKSVTIYLGNRDYIDHVSQV-NH2 [HIP-115],develop an immune response against it,behave as apitopes
